In the CheMixHub viscosity set:
± gives the uncertainty stated by the source.

Experiment: xn = mol fraction of the nth substance listed

COCCOCCOCCOC + COC(=O)OC
298.15 K, 101.33 kPa
Conditions | viscosity [mPa·s]
x1 = 0.0029 | 0.592 ± 0.006
x1 = 0.0133 | 0.606 ± 0.006
x1 = 0.0209 | 0.618 ± 0.006
x1 = 0.0436 | 0.651 ± 0.006
x1 = 0.0642 | 0.679 ± 0.007
x1 = 0.0947 | 0.721 ± 0.007
x1 = 0.1187 | 0.753 ± 0.007
x1 = 0.1459 | 0.792 ± 0.007
x1 = 0.1856 | 0.846 ± 0.008
x1 = 0.2147 | 0.888 ± 0.008
x1 = 0.2593 | 0.953 ± 0.008
x1 = 0.3084 | 1.026 ± 0.009
x1 = 0.3099 | 1.025 ± 0.009
x1 = 0.3614 | 1.099 ± 0.009
x1 = 0.4011 | 1.157 ± 0.01
x1 = 0.4433 | 1.221 ± 0.01
x1 = 0.5005 | 1.303 ± 0.011
x1 = 0.5659 | 1.396 ± 0.011
x1 = 0.6004 | 1.449 ± 0.012
x1 = 0.6515 | 1.524 ± 0.012
x1 = 0.6923 | 1.585 ± 0.013
x1 = 0.7622 | 1.673 ± 0.013
x1 = 0.815 | 1.74 ± 0.014
x1 = 0.8324 | 1.76 ± 0.014
x1 = 0.9158 | 1.86 ± 0.014
x1 = 0.9541 | 1.899 ± 0.015

CC(C)(C)O + CN1CCCC1=O
298.15 K, 101 kPa
Conditions | viscosity [mPa·s]
x2 = 0.0522 | 4.027 ± 0.042
x2 = 0.1107 | 3.478 ± 0.036
x2 = 0.2046 | 2.892 ± 0.029
x2 = 0.2528 | 2.676 ± 0.027
x2 = 0.3034 | 2.494 ± 0.025
x2 = 0.3557 | 2.342 ± 0.023
x2 = 0.4023 | 2.234 ± 0.022
x2 = 0.4562 | 2.13 ± 0.021
x2 = 0.4773 | 2.095 ± 0.021
x2 = 0.4998 | 2.064 ± 0.02
x2 = 0.5605 | 1.981 ± 0.019
x2 = 0.5966 | 1.942 ± 0.019
x2 = 0.6533 | 1.885 ± 0.018
x2 = 0.7046 | 1.842 ± 0.018
x2 = 0.7461 | 1.809 ± 0.018
x2 = 0.8029 | 1.775 ± 0.017
x2 = 0.8498 | 1.745 ± 0.017
x2 = 0.9007 | 1.719 ± 0.017
x2 = 0.9581 | 1.688 ± 0.017

CC(C)(C)O + CCO
303.2 K, 101.33 kPa
Conditions | viscosity [mPa·s]
x2 = 0.05 | 3.256 ± 0.021
x2 = 0.1 | 3.156 ± 0.021
x2 = 0.15 | 3.039 ± 0.02
x2 = 0.2 | 2.914 ± 0.019
x2 = 0.3 | 2.645 ± 0.017
x2 = 0.4 | 2.36 ± 0.015
x2 = 0.5 | 2.07 ± 0.013
x2 = 0.6 | 1.793 ± 0.011
x2 = 0.7 | 1.548 ± 0.01
x2 = 0.8 | 1.336 ± 0.009
x2 = 0.85 | 1.239 ± 0.008
x2 = 0.9 | 1.147 ± 0.007
x2 = 0.95 | 1.059 ± 0.007
